From patent publication US7973061B2, “Anaplastic lymphoma kinase modulators and methods of use” (Exelixis, Inc., priority 2004, dated 2011)

Target: T1, ALK (baculovirus expressed human ALK kinase domain F1098-K1410) (Homo sapiens, UniProt Q9UM73)
T1 construct: human ALK kinase domain F1098-K1410; made in house
Test: biochemical
Conditions: 1 μM ATP, 4 μM poly-AEKY, 12 nM ALK, 2 hours at ambient temperature; read-out: ALK IC50
Procedure: Kinase activity and compound inhibition are investigated using one or more of the three assay formats described below. The ATP concentrations for each assay are selected to be close to the Michaelis-Menten constant (KM) for each individual kinase. Dose-response experiments are performed at 10 different inhibitor concentrations in a 384-well plate format. […] Y=Min+(Max−Min)/(1+(X/IC50)^H) Equation (2) Luciferase-Coupled Chemiluminescent Kinase Assay
ALK biochemical activity was assessed using a Luciferase-Coupled Chemiluminescent Kinase assay (LCCA) format in which kinase activity was measured as the percent ATP remaining following the kinase reaction. ATP remaining after the kinase reaction was detected by luciferase-luciferin-coupled chemiluminescence. […] The mixture was incubated at ambient temperature for 2 hours after which 20 μL luciferase-luciferin mix was added and the chemiluminescent signal read using a Wallac Victor^2 reader. […] Consumption of ATP by ALK can be quantified and utilized as a measure of inhibition of ALK activity by compounds described herein. By employing serial dilutions of compounds to be tested, the ability of test compounds to inhibit ALK activity can be determined.

T1 sequence (Q9UM73 1098-1410): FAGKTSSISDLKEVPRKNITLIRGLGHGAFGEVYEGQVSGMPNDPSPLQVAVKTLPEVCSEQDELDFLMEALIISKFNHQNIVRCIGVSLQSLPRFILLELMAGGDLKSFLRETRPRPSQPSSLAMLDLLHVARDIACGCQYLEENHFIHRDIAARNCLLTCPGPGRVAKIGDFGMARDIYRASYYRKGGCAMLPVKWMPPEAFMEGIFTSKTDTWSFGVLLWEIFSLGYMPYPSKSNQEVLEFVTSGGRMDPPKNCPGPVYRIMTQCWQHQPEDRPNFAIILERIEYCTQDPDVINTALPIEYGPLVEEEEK

CN(C)Cc1ccc(CSCCNC(=O)c2csc(CNC(=O)COc3ccc(OC(F)(F)F)cc3)n2)o1 [Entry 130, N-{2-[({5-[(dimethylamino)methyl]furan-2-yl}methyl)thio]ethyl}-2-({[({4-[(trifluoromethyl)oxy]phenyl}oxy)acetyl]amino}methyl)-1,3-thiazole-4-carboxamide] and Cc1ccc(CCNC(=O)c2csc(CNC(=O)COc3ccc(OC(F)(F)F)cc3)n2)c(C)c1 [Entry 49, N-[2-(2,4-dimethylphenyl)ethyl]-2-({[({4-[(trifluoromethyl)oxy]phenyl}oxy)acetyl]amino}methyl)-1,3-thiazole-4-carboxamide] fall in the same range of IC50: 50 to 500 nM for the first, 50 to 500 nM for the second.

O=C(COc1ccc(OC(F)(F)F)cc1)NCc1nc(C(=O)N2CCc3c([nH]c4ccccc34)C2)cs1 [Entry 96, N-{[4-(1,3,4,9-tetrahydro-2H-beta-carbolin-2-ylcarbonyl)-1,3-thiazol-2-yl]methyl}-2-({4-[(trifluoromethyl)oxy]phenyl}oxy)acetamide] and O=C(COc1ccc(OC(F)(F)F)cc1)NCc1nc(C(=O)NCc2cccc(F)c2)cs1 [Entry 127, N-[(3-fluorophenyl)methyl]-2-({[({4-[(trifluoromethyl)oxy]phenyl}oxy)acetyl]amino}methyl)-1,3-thiazole-4-carboxamide] fall in the same range of IC50: 50 to 500 nM for the first, 50 to 500 nM for the second.

COc1cccc(CCNC(=O)c2csc(CNC(=O)COc3ccc(OC(F)(F)F)cc3)n2)c1 [Entry 40, N-{2-[3-(methyloxy)phenyl]ethyl}-2-({[({4-[(trifluoromethyl)oxy]phenyl}oxy)acetyl]amino}methyl)-1,3-thiazole-4-carboxamide] and O=C(COc1ccc(OC(F)(F)F)cc1)NCc1nc(C(=O)NCc2c(F)cccc2F)cs1 [Entry 115, N-[(2,6-difluorophenyl)methyl]-2-({[({4-[(trifluoromethyl)oxy]phenyl}oxy)acetyl]amino}methyl)-1,3-thiazole-4-carboxamide] fall in the same range of IC50: 50 to 500 nM for the first, 50 to 500 nM for the second.

O=C(COc1ccc(OC(F)(F)F)cc1)NCc1nc(C(=O)NCc2cccs2)cs1 [Entry 164, N-(2-thienylmethyl)-2-({[({4-[(trifluoromethyl)oxy]phenyl}oxy)acetyl]amino}methyl)-1,3-thiazole-4-carboxamide] and CC(C)(C)CC(C)(C)NC(=O)c1csc(CNC(=O)COc2ccc(OC(F)(F)F)cc2)n1 [Entry 196, N-(1,1,3,3-tetramethylbutyl)-2-({[({4-[(trifluoromethyl)oxy]phenyl}oxy)acetyl]amino}methyl)-1,3-thiazole-4-carboxamide] fall in the same range of IC50: 50 to 500 nM for the first, 50 to 500 nM for the second.

O=C(COc1ccc(OC(F)(F)F)cc1)NCc1nc(C(=O)N[C@@H]2C[C@H]3CC[C@@H]2C3)cs1 [Entry 105, N-[(1R,2R,4S)-bicyclo[2.2.1]hept-2-yl]-2-({[({4-[(trifluoromethyl)oxy]phenyl}oxy)acetyl]amino}methyl)-1,3-thiazole-4-carboxamide] and O=C(COc1ccc(OC(F)(F)F)cc1)NCc1nc(C(=O)NCCc2cccc(Cl)c2)co1 [Entry 31, N-[2-(3-chlorophenyl)ethyl]-2-({[({4-[(trifluoromethyl)oxy]phenyl}oxy)acetyl]amino}methyl)-1,3-oxazole-4-carboxamide] fall in the same range of IC50: 50 to 500 nM for the first, 50 to 500 nM for the second.

First: CCc1ccc(NC(=O)NCc2nc(C(=O)NCCc3cccc(Cl)c3)cs2)cc1 [Entry 8, N-[2-(3-chlorophenyl)ethyl]-2-[({[(4-ethylphenyl)amino]carbonyl}amino)methyl]-1,3-thiazole-4-carboxamide]
Second: COc1cccc(CNC(=O)c2csc(CNC(=O)Nc3ccc(C(C)C)cc3)n2)c1OC [Entry 78, N-{[2,3-bis(methyloxy)phenyl]methyl}-2-{[({[4-(1-methylethyl)phenyl]amino}carbonyl)amino]methyl}-1,3-thiazole-4-carboxamide]
The IC50 of the first is lower: less than 50 nM for the first, 50 to 500 nM for the second.

COc1ccccc1CNC(=O)c1csc(CNC(=O)COc2ccc(I)cc2)n1 [Entry 82, 2-[({[(4-iodophenyl)oxy]acetyl}amino)methyl]-N-{[2-(methyloxy)phenyl]methyl}-1,3-thiazole-4-carboxamide] gave an IC50 of 50 to 500 nM.
